Earlier results in patent publication US20110105488A1, “SUBSTITUTED PYRROLIDINE AND PIPERIDINE COMPOUNDS, DERIVATIVES THEREOF, AND METHODS FOR TREATING PAIN” (Chlorion Pharma, Inc., priority 2008, published 2011).

How the values were obtained:
clinical trial subjects = conditions: review of multiple clinical studies
patients = conditions: human, in vivo
[1] = system: patients with post-herpetic neuralgia

**Q.** With `CC(C)C[C@H](CN)CC(=O)O` [pregabalin] as the molecule, how does the adverse effects evoked (clinical trial subjects) read?
**A.** Its adverse effects evoked is “significant somnolence, vertigo, and headache”.

**Q.** Which adverse effects evoked (patients) does the source give for `NC(=O)N1c2ccccc2C=Cc2ccccc21` [carbamazepine] here?
**A.** Its adverse effects evoked is “various sensory deficits”.

**Q.** And the “patients with rash and leucopenia” value (patients)?
**A.** The value was about 10%.

**Q.** Which results are given for `NCC1(CC(=O)O)CCCCC1` [gabapentin]?
**A.** mean endpoint pain score ([1]; 8-week trials, mean baseline 6.3): 4.2; decrease in pain ([1]; two placebo-controlled, parallel-group trials of 8-weeks duration): ~33%
